Experimental data from patent US20260256792A1, “TREATMENT OF CHRONIC SPONTANEOUS URTICARIA BY ADMINISTERING (R)-2-[3-[4-AMINO-3-(2-FLUORO-4-PHENOXY-PHENYL)PYRAZOLO[3,4-D]PYRIMIDIN-1-YL]PIPERIDINE-1-CARBONYL]-4-METHYL-4-[4-(OXETAN-3-YL)PIPERAZIN-1-YL]PENT-2-ENENITRILE” (priority 2023, published 2026).

System: moderate-to-severe chronic spontaneous urticaria (CSU)
Assay: Phase 2 CSU study: itch severity score over 7 days (ISS7)
Type: in vivo, human
Source text: The study comprises a 12 week, randomized, double-blind, placebo-controlled, multi-center, dose-ranging efficacy and safety phase, followed by a 40 week open label extension (OLE) phase (see FIG. 1). The study consists of three phases and an optional OLE phase. […] Clinically, CSU is characterized by the spontaneous and recurrent appearance of pruritic hives. The proposed primary endpoints were the UAS7 at Week 12 in EU and EU reference countries and the ISS7 in the US. Regardless of where a participant was from, all assessments were the same. The UAS7 score is a composite score containing both the HSS7 and the ISS7. This allowed a global assessment of the two key components of urticaria: hives and itch. […] The UAS is a validated PRO measure. […] The daily UAS scores range from 0 to 6 point/day. […] Patients were to complete the UAS using the e-diary. […] The following secondary endpoints were to be analyzed using the same approach as for the primary endpoint: • Change from baseline in UAS7 at Week 4 • Change from baseline in UAS7 at Week 12 (for US and US reference countries) • Change from baseline in ISS7 at Week 12 (except US and US reference countries) • Change from baseline in HSS7 at Week 12

[1] = Week 4, 400 mg TID, Prior Omalizumab Use
[2] = Week 5, 400 mg BID, Omalizumab-Naïve
[3] = Week 5, 400 mg BID, Prior Omalizumab Use
[4] = Week 5, 400 mg QPM, Omalizumab-Naïve
[5] = Week 5, 400 mg QPM, Prior Omalizumab Use
[6] = Week 5, 400 mg TID, Omalizumab-Naïve
[7] = Week 5, 400 mg TID, Prior Omalizumab Use
[8] = Week 6, 400 mg BID, Omalizumab-Naïve
[9] = Week 6, 400 mg BID, Prior Omalizumab Use
[10] = Week 6, 400 mg QPM, Omalizumab-Naïve
[11] = Week 6, 400 mg QPM, Prior Omalizumab Use
[12] = Week 6, 400 mg TID, Omalizumab-Naïve
[13] = Week 6, 400 mg TID, Prior Omalizumab Use
[14] = Week 7, 400 mg BID, Omalizumab-Naïve
[15] = Week 7, 400 mg BID, Prior Omalizumab Use
[16] = Week 7, 400 mg QPM, Omalizumab-Naïve
[17] = Week 7, 400 mg QPM, Prior Omalizumab Use

CC(C)(C=C(C#N)C(=O)N1CCC[C@@H](n2nc(-c3ccc(Oc4ccccc4)cc3F)c3c(N)ncnc32)C1)N1CCN(C2COC2)CC1 [rilzabrutinib, (R)-2-[3-[4-amino-3-(2-fluoro-4-phenoxy-phenyl)pyrazolo[3,4-d]pyrimidin-1-yl]piperidine-1-carbonyl]-4-methyl-4-[4-(oxetan-3-yl)piperazin-1-yl]pent-2-enenitrile]
ISS7 Mean (SD) [1]: 6.17 (6.41)
ISS7 Median [1]: 5.42
ISS7 Percent change from baseline Mean (SD) [1]: −61.65 (32.63) %
ISS7 Percent change from baseline Median [1]: −62.50%
ISS7 Change from baseline Mean (SD) [2]: −6.55 (6.17)
ISS7 Change from baseline Median [2]: −6.42
ISS7 Mean (SD) [2]: 8.88 (6.81)
ISS7 Median [2]: 8.50
ISS7 Percent change from baseline Mean (SD) [2]: −43.73 (41.21) %
ISS7 Percent change from baseline Median [2]: −39.85%
ISS7 Change from baseline Median [3]: −14.50
ISS7 Mean (SD) [3]: 5.50 (8.54)
ISS7 Median [3]: 2.00
ISS7 Percent change from baseline Mean (SD) [3]: −68.33 (47.26) %
ISS7 Percent change from baseline Median [3]: −86.67%
ISS7 Change from baseline Mean (SD) [4]: −5.53 (4.98)
ISS7 Change from baseline Median [4]: −4.10
ISS7 Mean (SD) [4]: 11.00 (4.68)
ISS7 Percent change from baseline Mean (SD) [4]: −31.93 (26.18) %
ISS7 Percent change from baseline Median [4]: −30.00%
ISS7 Change from baseline Mean (SD) [5]: −10.00 (NC)
ISS7 Change from baseline Median [5]: −10.00
ISS7 Mean (SD) [5]: 11.00 (NC)
ISS7 Percent change from baseline Mean (SD) [5]: −47.62 (NC) %
ISS7 Percent change from baseline Median [5]: −47.62%
ISS7 Change from baseline Mean (SD) [6]: −9.18 (6.46)
ISS7 Change from baseline Median [6]: −9.00
ISS7 Mean (SD) [6]: 6.92 (5.87)
ISS7 Median [6]: 7.00
ISS7 Percent change from baseline Mean (SD) [6]: −55.68 (34.88) %
ISS7 Percent change from baseline Median [6]: −56.25%
ISS7 Mean (SD) [7]: 5.50 (6.53)
ISS7 Median [7]: 3.00
ISS7 Percent change from baseline Mean (SD) [7]: −66.60 (31.51) %
ISS7 Percent change from baseline Median [7]: −72.43%
ISS7 Change from baseline Mean (SD) [8]: −6.58 (5.90)
ISS7 Change from baseline Median [8]: −5.75
ISS7 Mean (SD) [8]: 8.85 (6.40)
ISS7 Percent change from baseline Mean (SD) [8]: −42.90 (39.02) %
ISS7 Percent change from baseline Median [8]: −33.40%
ISS7 Change from baseline Mean (SD) [9]: −10.13 (9.42)
ISS7 Change from baseline Median [9]: −14.00
ISS7 Mean (SD) [9]: 7.07 (8.32)
ISS7 Median [9]: 2.33
ISS7 Percent change from baseline Mean (SD) [9]: −56.44 (51.68) %
ISS7 Change from baseline Mean (SD) [10]: −6.59 (5.45)
ISS7 Change from baseline Median [10]: −5.00
ISS7 Mean (SD) [10]: 10.27 (5.26)
ISS7 Percent change from baseline Mean (SD) [10]: −38.20 (29.52) %
ISS7 Percent change from baseline Median [10]: −31.67%
ISS7 Change from baseline Mean (SD) [11]: −12.00 (NC)
ISS7 Change from baseline Median [11]: −12.00
ISS7 Mean (SD) [11]: 9.00 (NC)
ISS7 Median [11]: 9.00
ISS7 Percent change from baseline Mean (SD) [11]: −57.14 (NC) %
ISS7 Percent change from baseline Median [11]: −57.14%
ISS7 Change from baseline Mean (SD) [12]: −8.71 (6.32)
ISS7 Change from baseline Median [12]: −7.50
ISS7 Mean (SD) [12]: 7.32 (6.05)
ISS7 Median [12]: 7.00
ISS7 Percent change from baseline Mean (SD) [12]: −53.59 (35.59) %
ISS7 Percent change from baseline Median [12]: −50.00%
ISS7 Change from baseline Mean (SD) [13]: −12.83 (7.49)
ISS7 Change from baseline Median [13]: −14.50
ISS7 Mean (SD) [13]: 4.17 (6.88)
ISS7 Median [13]: 2.00
ISS7 Percent change from baseline Mean (SD) [13]: −75.50 (33.00) %
ISS7 Percent change from baseline Median [13]: −88.10%
ISS7 Change from baseline Mean (SD) [14]: −7.28 (5.95)
ISS7 Change from baseline Median [14]: −8.08
ISS7 Mean (SD) [14]: 8.21 (6.16)
ISS7 Median [14]: 7.00
ISS7 Percent change from baseline Mean (SD) [14]: −46.93 (37.51) %
ISS7 Percent change from baseline Median [14]: −56.35%
ISS7 Change from baseline Mean (SD) [15]: −10.40 (9.91)
ISS7 Change from baseline Median [15]: −13.00
ISS7 Mean (SD) [15]: 6.80 (8.56)
ISS7 Median [15]: 2.00
ISS7 Percent change from baseline Mean (SD) [15]: −57.33 (52.62) %
ISS7 Percent change from baseline Median [15]: −86.67%
ISS7 Change from baseline Mean (SD) [16]: −6.11 (5.15)
ISS7 Change from baseline Median [16]: −5.20
ISS7 Mean (SD) [16]: 10.68 (5.34)
ISS7 Percent change from baseline Mean (SD) [16]: −36.22 (29.09) %
ISS7 Percent change from baseline Median [16]: −37.78%
ISS7 Change from baseline Mean (SD) [17]: −13.00 (NC)
ISS7 Change from baseline Median [17]: −13.00
ISS7 Mean (SD) [17]: 8.00 (NC)
ISS7 Median [17]: 8.00
ISS7 Percent change from baseline Mean (SD) [17]: −61.90 (NC) %
ISS7 Percent change from baseline Median [17]: −61.90%
